The record followed here is patent publication US8822440B2, “Inhibiting cyclin D polypeptides” (Mayo Foundation for Medical Education and Research, priority 2006, dated 2014).

Data set [1] has as its system CCND2 promoter. Nature of the data set: CCND2 promoter-luciferase transactivation assay in NIH3T3 cells with or without c-maf. The following applies: for effect on CCND2-luc expression, agent alone: 5 μM; for effect on CCND2-luc expression, agent alone / identified as putative inhibitor of CCND2 transactivation (screen hit): 16 hours; for identified as putative inhibitor of CCND2 transactivation (screen hit): ~5 μM, hit = 50% or more reduction in luciferase relative to cell viability. Type of data set: cell-based, mouse. The method, then:
Using this assay, Lopac (n=1280), Prestwick (n=1120), and Spectrum (n=2000) libraries of drugs and natural compounds were screened. In a parallel MTS assay, the effect of each compound on 3T3 viability was determined, allowing exclusion of compounds that caused secondary suppression of CCND2 due to non-specific cytotoxicity. […] These included monensin, patulin, β-lapachone, camptothecin, dihydrogambogic acid, gentian violet, thapsigargin, brefeldin A, pristimerin, and kinetin riboside.
Full-length c-maf cDNA was subcloned into an IRES-GFP MIEV retroviral vector and introduced into NIH3T3 cells by infection. Stable clones expressing GFP and c-maf were selected by flow cytometry and immunoblotting, respectively. The promoter of human cyclin D2 (−894 to −4; Brooks et al., J. Biol. Chem., 271, 9090-9 (1996)), containing c-maf responsive element sequence (MARE), was cloned from DNA from HeLa cells and inserted into the pGLbasic firefly luciferase vector (Promega, Madison, Wis.) immediately upstream of the luciferase gene. This construct was co-transfected with pcDNA3 (containing a neomycin resistance gene) into both NIH3T3 wild type cells and NIH3T3 cells stably over-expressing c-maf-IRES-GFP. Cells stably expressing c-maf, GFP, and luciferase were selected.
(§1) NIH3T3 cells stably expressing c-maf and the CCND2 promoter driving luciferase (13,000 cells per well) were plated in 96-well plates by a Biomek FX liquid handler (Beckman, Fullerton, Calif.). After the cells had adhered, they were treated with aliquots of molecules from LOPAC (Sigma, St. Louis, Mo.), Prestwick (Prestwick Chemical Inc, Illkirch, France) or Spectrum (Microsource Discovery Systems, Gaylordsville, Conn.) libraries of off-patent drugs and chemicals at a final concentration of ˜5 μM and <0.1% DMSO. Cells were incubated with compounds at 37° C. for 16 hours.
Luciferase assay. Luciferase activity was assessed according to the manufacturer's instructions (Promega, Madison, Wis.). Briefly, the cell culture medium was removed using an EMBLA plate washer (Molecular Devices, X) and Glo Lysis buffer (Promega) was added by robot. After a 10-minute incubation, an equal volume of Bright-Glo Luciferase substrate (Promega) was added, and luminescence signal was detected with a 96-well Luminoskan luminescence plate reader (Thermo Labsystem, Waltham, Mass.) using a 5 second integration.
Studies of kinetin riboside using 3T3-D2-luc cells. To examine CCND2 suppression induced by kinetin riboside, the reporter cells were exposed to kinetin riboside in combination with other drugs (all purchased from Sigma, St. Loius, Mo.) that influence CCND2 transcription or inhibit nucleoside transport or phosphorylation. NIH3T3 cells expressing the CCND2 promoter driving luciferase were incubated with kinetin riboside or vehicle control +/− forskolin, 4-(3-butoxy-4-methoxybenzyl)imidazolidin-2-one (BMBI), cantharadin, S-(4-Nitrobenzyl)-6-thioinosine (NBTI), or A-134974, as specified at 5 μM concentration for 16 hours at 37° C. […] Forskolin is a cell-permeable diterpenoid that activates adenylate cyclase resulting in increased cAMP concentration. BMBI (Sigma B8279) is an inhibitor of cAMP phosphodiesterase that also causes accumulation of cAMP. Cantharadin (C7632) is an inhibitor of protein phosphatase 2A and, from the library screen, mediates induction of CCND2. NBTI (Sigma N2255) is a potent adenosine uptake inhibitor, and A-134974 (Sigma A2846) is a selective inhibitor of adenosine kinase.
(§2) In an optimized automated assay, NIH3T3 cells over-expressing c-maf and the human cyclin D2 promoter driving luc were plated in 96-well plates by robot and following adhesion were treated for 16 hours with compounds at a final concentration of ˜5 μM and <0.1% DMSO. As a control, cells were treated with buffer alone. […] Thus, each compound from the library was tested in at least two assays—luciferase for CCND2 activity and MTS for viability. The coefficient of variance (CV) of the assay was <10%.

Data set [2] relates to NIH3T3 cells. It counts as cell-based, mouse. The following applies: MTS. Here is the method:
as §1
(§3) Viability assay. The effects of screened compounds on cell viability was assessed by 3-(4,5-dimethyl[…])-5-(3-carboxymethoxyphenyl)-2-(4-sulfophenyl)-2-H-tetrazolium (MTS) assay according to the manufacture's instructions (Progmega, Madison, Wis.). MTS reagent (20 μL/well in 96 well plates) was added to cells, and these were then incubated at 37° C. for 4 hours. Absorbance at 490 nm was determined using a 96-well plate reader.
as §2

For data set [3], the system named is HMCL. Nature of the data set: Cell cycle profiling of HMCL by flow cytometry. It counts as cell-based, human. The following applies: Example 1, HMCL. Here is the method:
Cell cycle profiling. HMCL were incubated with drug or vehicle as indicated, washed and resuspended in 1 mL PBS. Ice cold ethanol was added dropwise to 75% with regular mixing, and suspensions were incubated at −20° C. for 1 hour. Cells were washed again with PBS and resuspended in 0.1 mL RNAse A (100 μg/mL) at room temperature for 5-10 minutes. Propidium iodide (200 μL×100 μg/mL) was added immediately prior to analysis by flow cytometry. Cellular aggregates were excluded using CellQuest Doublet Discriminator Module, and cell cycle profile was determined using ModFit LT Mac 3.1 SP2 (Verity Software House, TopSham, Me.).

The test system of data set [4] is human myeloma cell lines (HMCL). In words: HMCL viability / cytotoxicity (MTT, MTS). It counts as cell-based. Here is the method:
Subsequent validation studies using selected compounds in human myeloma cell lines (HMCL) confirmed successful suppression of both cyclin D2 and D1 polypeptides. Each of these compounds was then shown to be cytotoxic to a genetically diverse and standardized panel of 14 HMCL in MTT assays: monensin (10-760 nM), camptothecin (5-700 nM), dihydrogambogic acid (250-800 nM), pristimerin (150-500 nM), and kinetin riboside (2.5-20 μM). Cell cycle analysis confirmed induction of G0/G1 phase arrest for most compounds, consistent with cyclin D inhibition.
as §3

For data set [5], the system named is CD138+ myeloma cells. In words: Unsorted myeloma patient bone marrow, flow cytometry: CD138+ myeloma cells. It counts as cell-based, human. The following applies: unsorted myeloma patient bone marrow samples. The method, then:
(§4) Flow cytometry. HMCL were treated as indicated and then washed in cold phosphate-buffered saline (PBS) and resuspended in buffer containing AnnexinV-FITC and propidium iodide (BD Biosciences, San Jose, Calif.) for 15 minutes at room temperature. Cells (10^5) were subsequently diluted and analyzed immediately by flow cytometry (FACScan, BD Biosciences, San Jose, Calif.) using CellQuest software. Patient bone marrow specimens were prepared and analyzed in a similar fashion using AnnexinV-FITC and anti-CD138-PE (BD Biosciences, San Jose, Calif.).
(§5) As mouse embryos that lack any D-cyclins eventually die from hematopoietic failure (Kozar et al., Cell, 118, 477-91 (2004)), the bone marrow might be predicted to be one of the most sensitive non-malignant tissue to be affected by drugs targeting cyclin D expression. Unsorted bone marrow samples from myeloma patients were treated with kinetin riboside to assess the relative cytotoxicity of this drug on malignant versus non-malignant marrow cells. Bone marrow samples were first processed to remove non-nucleated red cells and were then treated for 48 hours with kinetin riboside (5 μM).
(In general: Flow cytometry measures light scatter and fluorescence of single cells or particles in a stream.)

Data set [6] has as its system CD138− hematopoietic cells. In words: Unsorted myeloma patient bone marrow, flow cytometry: CD138- non-malignant cells. It counts as cell-based. The following applies: for toxicity for normal / non-malignant patient hematopoietic cells: patient bone marrow. Here is the method:
as §4, §5

“Also recorded” adds a separate entry of the source.

In the case of `CCCCOc1cc(CC2CNC(=O)N2)ccc1OC` (centres unmarked) [BMBI, 4-(3-butoxy-4-methoxybenzyl)imidazolidin-2-one], the “effect on CCND2-luc expression, agent alone” value in data set [1] (NIH3T3 reporter cells) is recorded as “CCND2 transactivation”.

With `O=[N+]([O-])c1ccc(CSc2ncnc3c2ncn3[C@@H]2O[C@H](CO)[C@@H](O)[C@H]2O)cc1` [NBTI, S-(4-Nitrobenzyl)-6-thioinosine], in data set [1] (NIH3T3 reporter cells, with kinetin riboside), the “effect on kinetin riboside-induced suppression of CCND2” value is on record as “does not block kinetin riboside function”.

`CC[C@@]1(O)C[C@H](O[C@H]2C[C@H](N(C)C)[C@H](O)[C@H](C)O2)c2c(cc3c(c2O)C(=O)c2c(O)cccc2C3=O)[C@H]1C(=O)OC` [aklavine]: the “identified as putative inhibitor of CCND2 transactivation (screen hit)” value (shortened to “identified as putative inhibitor”) in data set [1] is reported as “putative suppressors of CCND2”. Besides, the “effect on NIH3T3 viability” value in data set [2] is “excess NIH3T3 cytoxicity”.

Regarding `C[C@H]1CCC/C=C/[C@@H]2C[C@H](O)C[C@H]2[C@H](O)/C=C/C(=O)O1` [brefeldin A], in data set [1], the “identified as putative inhibitor” value is recorded as “putative CCND2 inhibitors”.

Turning to `CC[C@@]1(O)C(=O)OCc2c1cc1n(c2=O)Cc2cc3ccccc3nc2-1` [camptothecin, reference compound], the “cell cycle arrest phase” value in data set [3] is given as “S-phase arrest”. Further, the “cytotoxic concentration across panel of 14 HMCL” value in data set [4] (MTT assays, 14 HMCL) lay in the range of 5 to 700 nM. Moreover, the “identified as putative inhibitor” value in data set [1] was “putative CCND2 inhibitors; also recorded: putative suppressors of CCND2”.

As to `C[C@@]12C(=O)OC(=O)[C@]1(C)[C@H]1CC[C@@H]2O1` [cantharadin], the “effect on CCND2-luc expression, agent alone” value in data set [1] (NIH3T3 reporter cells) is “marked transactivation”.

Take `CC(C)=CCCC1(C)C=Cc2c(O)c3c(c(CC=C(C)C)c2O1)OC12C(=CC4CC1C(C)(C)OC2(C/C=C(/C)C(=O)O)C4O)C3=O` (centres unmarked) [dihydrogambogic acid]: in data set [5], the “activity against CD138+ myeloma cells compared with non malignant hematopoietic cells” value is “selective activity”. Further, the “cytotoxic concentration across panel of 14 HMCL” value in data set [4] (human) lay within 250 to 800 nM. The “suppression of CCND2 promoter in absence or presence of c-maf” value in data set [1] (NIH3T3 CCND2-luc with or without c-maf) was “c-maf independent specific suppression of the CCND2 promoter”. Also, the “identified as putative inhibitor” value in data set [1] is reported as “putative CCND2 inhibitors; also recorded: putative suppressors of CCND2”.

As to `CN(C)c1ccc(C(=C2C=CC(=[N+](C)C)C=C2)c2ccc(N(C)C)cc2)cc1` [gentian violet], the “identified as putative inhibitor” value in data set [1] is “putative CCND2 inhibitors; also recorded: putative suppressors of CCND2”.

`N[C@@H](Cc1ccc(N(CCCl)CCCl)cc1)C(=O)O` [melphalan, reference compound]: in data set [6] (48 hours, kinetin riboside 5 μM), the “effect on non-malignant CD138− marrow cells” value is “killed proportionately more healthy CD138− marrow cells than malignant myeloma cells”.

On to `CC[C@@]1([C@@H]2O[C@@H]([C@H]3O[C@@](O)(CO)[C@H](C)C[C@@H]3C)C[C@@H]2C)CC[C@H]([C@]2(C)CC[C@]3(C[C@H](O)[C@@H](C)[C@@H]([C@@H](C)[C@@H](OC)[C@H](C)C(=O)O)O3)O2)O1` [monensin, reference compound], for which the “cytotoxic concentration across panel of 14 HMCL” value in data set [4] (human) is 10 to 760 nM. In addition, in data set [1], the “identified as putative inhibitor” value was “putative CCND2 inhibitors; also recorded: putative suppressors of CCND2”. Also, the “toxicity for normal / non-malignant patient hematopoietic cells” value in data set [6] was “almost equal toxicity for normal cells”; in data set [6] (listed as Monensin), “excessive non-specific toxicity”.

Regarding `N=C1C=CC(=C(c2ccc(N)cc2)c2ccc(N)cc2)C=C1` [pararosaniline pamoate], the “identified as putative inhibitor” value in data set [1] was “putative suppressors of CCND2”.

For `C/C=C(/C)C(=O)O[C@H]1C(C)=C2[C@H]([C@@H]1OC(=O)CCCCCCC)[C@@](C)(OC(C)=O)C[C@H](OC(=O)CCC)[C@@]1(O)[C@H]2OC(=O)[C@@]1(C)O` [thapsigargin], the “identified as putative inhibitor” value in data set [1] was “putative CCND2 inhibitors”.

Consider `CC1(C)CCC2=C(O1)c1ccccc1C(=O)C2=O` [β-lapachone, reference compound], for which the “cell cycle arrest phase” value in data set [3] is given as “S-phase arrest”. Further, the “identified as putative inhibitor” value in data set [1] is “putative CCND2 inhibitors”.
